# Reference: ChEMBL document CHEMBL5352426, “Synthesis and anti-tumor activity of nitrogen-containing derivatives of the natural product diphyllin” (Eur J Med Chem, 2022)
# Activity calls are given as the source filed them. The calls are words filed in the database; no cut-off is given here.
# What was measured:
# [1] = tested on: CFPAC-1; test: Induction of apoptosis in human CFPAC-1 cells assessed as viable cells at 1 uM incubated for 24 hrs by annexin V-FITC/PI staining based flow cytometry (reference value: 93.5 %); type: functional; conditions: read-out: Activity
# [2] = Metabolic stability in human liver microsome assessed as half life; type: ADME; conditions: liver microsomes
# [3] = Metabolic stability in human liver microsome assessed as hepatic clearance; type: ADME; conditions: microsomes
# [4] = tested on: Panc02; test: Antiproliferative activity against mouse Panc02 cells assessed as inhibition of cell proliferation at 1 uM incubated for 72 hrs by SRB assay relative to control; type: functional
# [5] = tested on: CFPAC-1; test: Induction of apoptosis in human CFPAC-1 cells assessed as early apoptotic cells at 10 uM incubated for 24 hrs by annexin V-FITC/PI staining based flow cytometry (reference value: 3.04 %); type: functional
# [6] = tested on: CFPAC-1; test: Induction of cell cycle arrest in human CFPAC-1 cells assessed as accumulation at S phase at 100 nM incubated for 24 hrs by flow cytometry (reference value: 24.5 %); type: functional
# [7] = tested on: CFPAC-1; test: Induction of cell cycle arrest in human CFPAC-1 cells assessed as accumulation at G1 phase at 100 nM incubated for 24 hrs by flow cytometry (reference value: 58.6 %); type: functional
# [8] = tested on: CFPAC-1; test: Induction of cell cycle arrest in human CFPAC-1 cells assessed as accumulation at G2 phase at 100 nM incubated for 24 hrs by flow cytometry (reference value: 14.5 %); type: functional
# [9] = tested on: CFPAC-1; test: Induction of cell cycle arrest in human CFPAC-1 cells assessed as accumulation at G2 phase at 10 nM incubated for 24 hrs by flow cytometry (reference value: 14.5 %); type: functional
# [10] = tested on: PaTu 8988t; test: Antiproliferative activity against human PaTu 8988t cells assessed as inhibition of cell proliferation incubated for 72 hrs by SRB assay; type: functional, cell-based
# [11] = Toxicity in C57BL/6 mouse xenografted with […] cells assessed as drug tolerance at 10 mg/kg, ip administered every two days for 20 days; type: organism-based; conditions: in vivo, 480 h, time 20 day
# [12] = tested on: CFPAC-1; test: Induction of apoptosis in human CFPAC-1 cells assessed as early apoptotic cells at 1 uM incubated for 24 hrs by annexin V-FITC/PI staining based flow cytometry (reference value: 3.04 %); type: functional
# [13] = tested on: CFPAC-1; test: Inhibition of autophagy at later stage in human CFPAC-1 cells assessed as increase in LC3-II/LC3-I ratio at 1 uM incubated for 24 hrs in presence of chloroquine by Western blot analysis; type: functional, cell-based
# [14] = tested on: CFPAC-1; test: Antiproliferative activity against human CFPAC-1 cells assessed as inhibition of cell proliferation at 1 uM incubated for 72 hrs by SRB assay relative to control; type: functional
# [15] = tested on: MIA PaCa-2; test: Antiproliferative activity against human MIA PaCa-2 cells assessed as inhibition of cell proliferation at 1 uM incubated for 72 hrs by SRB assay relative to control; type: functional
# [16] = tested on: CFPAC-1; test: Induction of apoptosis in human CFPAC-1 cells assessed as necrotic cells at 10 uM incubated for 24 hrs by annexin V-FITC/PI staining based flow cytometry (reference value: 0.37 %); type: functional
# [17] = Metabolic stability in mouse liver microsome assessed as hepatic clearance; type: ADME; conditions: microsomes
# [18] = tested on: CFPAC-1; test: Induction of apoptosis in human CFPAC-1 cells assessed as late apoptotic cells at 10 uM incubated for 24 hrs by annexin V-FITC/PI staining based flow cytometry (reference value: 3.14 %); type: functional
# [19] = tested on: CFPAC-1; test: Induction of cell cycle arrest in human CFPAC-1 cells assessed as accumulation at S phase at 10 nM incubated for 24 hrs by flow cytometry (reference value: 24.5 %); type: functional
# [20] = Antiproliferative activity against human L02 cells assessed as inhibition of cell proliferation incubated for 72 hrs by SRB assay; type: toxicity, cell-based
# [21] = tested on: Panc02; test: Antiproliferative activity against mouse Panc02 cells assessed as inhibition of cell proliferation incubated for 72 hrs by SRB assay; type: functional, cell-based; conditions: Panc02, 72 h
# [22] = tested on: CFPAC-1; test: Induction of cell cycle arrest in human CFPAC-1 cells assessed as accumulation at G2 phase at 1000 nM incubated for 24 hrs by flow cytometry (reference value: 14.5 %); type: functional
# [23] = tested on: CFPAC-1; test: Induction of apoptosis in human CFPAC-1 cells assessed as necrotic cells at 1 uM incubated for 24 hrs by annexin V-FITC/PI staining based flow cytometry (reference value: 0.37 %); type: functional
# [24] = Metabolic stability in mouse liver microsome assessed as intrinsic clearance; type: ADME; conditions: liver microsomes, read-out: CLH
# [25] = tested on: CFPAC-1; test: Induction of apoptosis in human CFPAC-1 cells assessed as late apoptotic cells at 1 uM incubated for 24 hrs by annexin V-FITC/PI staining based flow cytometry (reference value: 3.14 %); type: functional
# [26] = tested on: Panc02; test: Antitumor activity against […] Panc02 cells xenografted in C57BL/6 mouse assessed as tumor growth inhibition at 10 mg/kg, ip administered every two days for 20 days by electronic caliper method relative to control; type: functional; conditions: Panc02, 480 h, time 20 day, read-out: TGI
# [27] = tested on: CFPAC-1; test: Induction of apoptosis in human CFPAC-1 cells assessed as viable cells at 10 uM incubated for 24 hrs by annexin V-FITC/PI staining based flow cytometry (reference value: 93.5 %); type: functional; conditions: read-out: Activity
# [28] = tested on: CFPAC-1; test: Induction of cell cycle arrest in human CFPAC-1 cells assessed as accumulation at S phase at 1000 nM incubated for 24 hrs by flow cytometry (reference value: 24.5 %); type: functional
# [29] = tested on: CFPAC-1; test: Effect on beclin-1 level in human CFPAC-1 cells at 10 to 1000 nM incubated for 24 hrs by Western blot analysis; type: functional, cell-based; conditions: dose 10-1000 nM
# [30] = Antiproliferative activity against human L02 cells assessed as inhibition of cell proliferation at 1 uM incubated for 72 hrs by SRB assay relative to control; type: toxicity, cell-based
# [31] = tested on: MIA PaCa-2; test: Antiproliferative activity against human MIA PaCa-2 cells assessed as inhibition of cell proliferation incubated for 72 hrs by SRB assay; type: functional, cell-based; conditions: MIA PaCa-2, 72 h
# [32] = tested on: CFPAC-1; test: Antiproliferative activity against human CFPAC-1 cells assessed as inhibition of cell proliferation incubated for 72 hrs by SRB assay; type: functional, cell-based; conditions: CFPAC-1, 72 h
# [33] = Metabolic stability in human liver microsome assessed as intrinsic clearance; type: ADME; conditions: liver microsomes, read-out: CLH
# [34] = Toxicity in C57BL/6 mouse xenografted with […] cells assessed as body weight loss at 10 mg/kg, ip administered every two days for 20 days; type: organism-based; conditions: in vivo, 480 h, time 20 day
# [35] = tested on: CFPAC-1; test: Induction of cell cycle arrest in human CFPAC-1 cells assessed as accumulation at G1 phase at 1000 nM incubated for 24 hrs by flow cytometry (reference value: 58.6 %); type: functional
# [36] = tested on: CFPAC-1; test: Induction of cell cycle arrest in human CFPAC-1 cells assessed as accumulation at G1 phase at 10 nM incubated for 24 hrs by flow cytometry (reference value: 58.6 %); type: functional
# [37] = tested on: PaTu 8988t; test: Antiproliferative activity against human PaTu 8988t cells assessed as inhibition of cell proliferation at 1 uM incubated for 72 hrs by SRB assay relative to control; type: functional
# [38] = Metabolic stability in mouse liver microsome assessed as half life; type: ADME; conditions: liver microsomes
# [39] = Aqueous solubility of the compound at 1 to 2 mg measured after 24 hrs by HPLC-MS analysis; type: physicochemical; conditions: aqueous (not further specified), dose 1-2 mg
smiles,measurement,setting,value
COc1cc2c(O)c3c(c(-c4ccc5c(c4)OCO5)c2cc1OC)C(=O)OC3 [DIPHYLLIN],viability at 1 µM,[1],89.9%
same,half-life,[2],43.8 min
same,CLH,[3],13.2 mL/min/kg
same,inhibition at 1 µM,[4],83.3%
same,Activity,[5],2.1%
same,Activity,[6],20.4%
same,Activity,[7],66.7%
same,Activity,[8],10.6%
same,Activity,[9],10.1%
same,IC50,[10],102 nM
same,Activity,[11],Non-Toxic
same,Activity,[12],1.99%
same,inhibition,[13],Active
same,inhibition at 1 µM,[14],75.4%
same,inhibition at 1 µM,[15],70.1%
same,Activity,[16],0.58%
same,CLH,[17],> 83.2 mL/min/kg
same,Activity,[18],9.53%
same,Activity,[19],28.7%
same,IC50 at 72 h,[20],3320 nM
same,IC50,[21],61 nM
same,Activity,[22],7.81%
same,Activity,[23],0.86%
same,microsomal CLint,[24],> 277 µL/min/mg
same,Activity,[25],7.23%
same,inhibition in vivo at 10 mg/kg,[26],22.6%
same,viability at 10 µM,[27],87.8%
same,Activity,[28],8.14%
same,Activity,[29],inactive
same,"inhibition at 72 h, 1 µM",[30],17.7%
same,IC50,[31],271 nM
same,IC50,[32],208 nM
same,microsomal CLint,[33],31.6 µL/min/mg
same,Activity,[34],Non-Toxic
same,Activity,[35],81.9%
same,Activity,[36],58.9%
same,inhibition at 1 µM,[37],77.5%
same,half-life,[38],< 5 min
same,solubility at 24 h,[39],0.021 µg/mL
